The values below come from the Deep4Chem optical property database.

The data set can be described thus: solvent given as SMILES.
Where [1] appears, read: in O=P(c1ccccc1)(c1ccccc1)c1ccccc1Oc1ccccc1P(=O)(c1ccccc1)c1ccccc1.

“And” between values parts separate entries of the source, which are not always exact repeats. Equal entries are not always repeated.

`CC1=CC(C)=[N+]2C1=Cc1c3ccccc3c(C#Cc3ccccc3)n1[B-]2(F)F` registered an emission maximum (in CCCCCC) of 615 nm; an emission maximum (in CCCCCCCCO) of 623 nm; an emission maximum (in CCOC(C)=O) of 618 nm; an emission maximum (in CN(C)C=O) of 624 nm; an emission maximum (in ClCCl) of 629 nm.

For `c1ccc2c(c1)Sc1ccccc1N2c1ccc2c(c1)C1(CCCC1)c1cc(N3c4ccccc4Sc4ccccc43)ccc1-2`, for the setting “in Cc1ccccc1”, the emission maximum is reported as 491 nm.

As to `COc1ccc(-c2cc(-c3ccc(C)cc3)nc3c(C#N)c(N4CCCC4)nc(N)c23)cc1`, the emission maximum by setting is: (in CC#N) 521 nm; (in CC(C)=O) 517 nm; (in CC(C)O) 511 nm; (in CO) 519 nm; (in ClC(Cl)Cl) 504 nm; (in ClCCl) 509 nm. Also, the emission maximum (in c1ccccc1) is listed as 513 nm.

In turn, `ClP1(Cl)=N[P@@](Cl)(Oc2ccc3ccc4cccc5ccc2c3c45)=N[P@@](Cl)(Oc2ccc3ccc4cccc5ccc2c3c45)=N1` came in with an emission maximum (in ClCCl) of 455 nm.

`N#Cc1c(-n2c3ccc(Cl)cc3c3cc(Cl)ccc32)c(C#N)c(-n2c3ccc(Cl)cc3c3cc(Cl)ccc32)c(-n2c3ccc(Cl)cc3c3cc(Cl)ccc32)c1-n1c2ccc(Cl)cc2c2cc(Cl)ccc21` came in with an emission maximum (in Cc1ccccc1) of 518 nm.

On to `CN(C)c1ccc(/C=C/c2cc[n+](C)cc2)cc1`, for which the emission maximum is, setting by setting: (in C1CCOC1) 590 nm; (in CC1COC(=O)O1) 600 nm; (in CC#N) 625 nm and 605 nm; (in CC(C)=O) 602 nm; (in CC(C)O) 591 nm; (in CCO) 594 nm. Moreover, the emission maximum is recorded as 595 nm (in CCOC(C)=O); 596 nm (in CN(C)C=O); 596 nm (in CO); 610 nm (in CS(C)=O); 585 nm (in ClC(Cl)Cl); 608 nm (in ClCCl). The emission maximum is 624 nm and 597 nm (in O); 605 nm (in c1ccncc1).

On to `CCOC(=O)COc1ccc(/C=C/C2=C3c4ccccc4C(c4[nH]c(C)cc4C)=[N+]3[B-](F)(F)n3c(C)cc(C)c32)cc1`, for which the emission maximum is on record as 684 nm (in C1CCOC1); 681 nm (in CC#N); 679 nm (in CCCCCC); 680 nm (in CO); 690 nm (in Cc1ccccc1); 687 nm (in ClCCl).

For `O=S1(=O)c2ccc(-c3ccc(N(c4ccccc4)c4ccccc4)cc3)cc2C2(c3ccccc3-c3ccccc32)c2cc(-c3ccc(N(c4ccccc4)c4ccccc4)cc3)ccc21`, the emission maximum (in CC(C)=O) is reported as 477.11 nm; the emission maximum (in CCCCCC) came out at 398.37 nm; the emission maximum (in CN(C)C=O) was 491.2 nm; the emission maximum (in Cc1ccccc1) came out at 425.46 nm; the emission maximum (in ClCCl) worked out at 465 nm.

Consider `CN(C)c1ccc(C2=[N+]3C(=Nc4c(-c5ccc(OCCCCS(=O)(=O)[O-])cc5)cc(-c5ccc(N(C)C)cc5)n4[B-]3(F)F)C(c3ccc(OCCCCS(=O)(=O)[O-])cc3)=C2)cc1`, for which the emission maximum (in CS(C)=O) worked out at 826 nm.

`COC(=O)c1nc2cnc(N)nc2n1Cc1ccccc1`: the emission maximum by setting is: (in C1COCCO1) 386 nm; (in CC#N) 388 nm; (in CO) 412 nm; (in ClCCl) 379 nm; (in O) 420 nm.

On to `c1ccc(-c2cc(-c3ccc(N4c5ccccc5C(c5ccccc5)(c5ccccc5)c5ccccc54)cc3)nc(-c3ccccc3)n2)cc1`, for which the emission maximum is on record as 450 nm (in Cc1ccccc1) and 464 nm under setting [1].

`CC/[NH+]=c1\cc2oc3cc(NCCC(=O)NC(C)C(=O)OC)c4ccccc4c3nc-2cc1C` (stereo not given) registered an emission maximum (in CCO) of 644 nm.

`CC1(C)c2ccccc2N(c2ccc(-c3nc4cc(C#N)c(C#N)cc4nc3-c3ccc(N4c5ccccc5C(C)(C)c5ccccc54)cc3)cc2)c2ccccc21` showed an emission maximum (in Cc1ccccc1) of 620 nm.

In the case of `COc1ccc2c3c(c4ccc(OC)cc4c2c1)C(C)(C)c1cc(-c2ccccc2)ccc1-3`, under “in C1CCCCC1”, the emission maximum is 392 nm.

As to `CCOC(=O)C1=CN(c2ccccc2)C=C(C(=O)OCC)C1c1ccccc1`, the emission maximum amounted to 412 nm (in C1CCOC1) and 426 nm (in CO).

As for `CN(/N=C1\N=C(N)C2(CCCC2)c2ccccc21)c1ccccc1`, the emission maximum (in ClCCl) came out at 471 nm.

`CC(C)c1cc(C(C)C)c(B2c3cc(-n4c5ccccc5c5ccccc54)ccc3N(c3ccccc3)c3ccc(-n4c5ccccc5c5ccccc54)cc32)c(C(C)C)c1`: the emission maximum was found to be 442.52 nm (in C1CCOC1); 442.52 nm (in CCOC(C)=O); 442.52 nm (in Cc1ccccc1); 442.52 nm (in ClCCl); 452 nm (in c1cc(-c2cccc(-n3c4ccccc4c4ccccc43)c2)cc(-n2c3ccccc3c3ccccc32)c1).

For `COc1ccc(-c2ccc(C(=O)NC(C)(C)C)c3c2ccc2c4ccccc4c4ccccc4c23)cc1`, for the setting “in ClCCl”, the emission maximum was 420 nm.

`Cc1c(C)c2c3ccccc3[nH]c2c2ccccc12`: under “in ClCCl”, the emission maximum is given as 370 nm.

The molecule `C1=CC2C=c3c(cc4cccc5cc6ccccc6c3c45)C3=c4ccccc4=CC(=C1)C32` (stereo not given) returned an emission maximum (in ClCCl) of 683 nm.

Take `Cc1ccc(/C2=c3\cc/c(o3)=C(\c3ccc(C)cc3)c3ccc([nH]3)-c3ccc4n3[P-](=O)(=O)[N+]3=C(C=CC3=C4c3ccc[nH]3)c3ccc2[nH]3)cc1`: the emission maximum (in ClC(Cl)Cl) is given as 740 nm.

Under “in ClCCl”, `CC(C)[Si](C#Cc1c2cc3ccccc3cc2c(C#Cc2ccc(C(F)(F)F)cc2)c2cc3ccccc3cc12)(C(C)C)C(C)C` gave an emission maximum of 667 nm.

Where the note is “in O”, `CC[n+]1c(-c2ccccc2)c2cc(NC(=O)N[C@H]3C[C@@H]([NH3+])[C@H](O)[C@@H](O)[C@@H]3O)ccc2c2ccc(NC(=O)N[C@@H]3C[C@H]([NH3+])[C@@H](O)[C@@H](O)[C@H]3O)cc21` came in with an emission maximum of 522 nm.

As for `CN(C)c1nc(N)nc2c1nc(C#N)n2Cc1ccccc1`, the emission maximum turned out to be 373 nm (in C1COCCO1), 378 nm (in CC#N), 389 nm (in CO) and 375 nm (in ClCCl).

In turn, `c1cc2c3c(cccc3c1)C(N1CCOCCOCCOCCOCC1)=N2` gave an emission maximum (in CC#N) of 590 nm.

As for `COc1cc(/C=C/c2nc3ccccc3o2)c(OC)cc1/C=C/c1nc(C)nc(C)n1`, the emission maximum (in C1CCOC1) amounted to 483 nm, the emission maximum (in CC#N) was determined as 495 nm, the emission maximum (in ClC(Cl)Cl) is 490 nm and the emission maximum (in ClCCl) turned out to be 492 nm.

`COc1ccc(-c2cc(N3CCCCC3)c(C#N)c3c2-c2cccc4cccc-3c24)cc1`: under “in O”, the emission maximum was determined as 552 nm.

Consider `CC1(C)C(/C=C/C2=C(Cl)C(=C/C=C3/N(Cc4ccc([N+](=O)[O-])cc4)c4ccccc4C3(C)C)/CCC2)=[N+](Cc2ccc([N+](=O)[O-])cc2)c2ccccc21`, for which the emission maximum (in CO) came to 807 nm.

`CN(C)c1ccc(C#Cc2cc(C#Cc3ccc(C(F)(F)F)cc3)c3ccc4c(C#Cc5ccc(N(C)C)cc5)cc(C#Cc5ccc(C(F)(F)F)cc5)c5ccc2c3c45)cc1`: the emission maximum (in ClCCl) was 605 nm.

The molecule `Cc1ccc(C#Cc2ccc3ccc4cccc5ccc2c3c45)cc1` displayed an emission maximum (in CCCCCC) of 387 nm, an emission maximum (in CCO) of 391 nm, an emission maximum (in CCOC(C)=O) of 391 nm and an emission maximum (in ClCCl) of 395 nm.

`Cc1cc(N2c3ccccc3C(C)(C)c3ccccc32)ccc1-c1ncnc(-c2ccc(N3c4ccccc4C(C)(C)c4ccccc43)cc2C)c1C` yielded an emission maximum (in Cc1ccccc1) of 454 nm and an emission maximum under setting [1] of 454 nm.

The molecule `CC1=CC(C)(C)N(C)c2cc3c(cc21)C(c1ccc(Br)cc1)=c1cc2c(cc1O3)=[N+](C)C(C)(C)C=C2C` displayed an emission maximum (in CCO) of 616 nm.

For `Cn1cc(-c2nc3ccccc3nc2C#Cc2ccccc2)c2ccccc21`, the emission maximum (in ClCCl) worked out at 510 nm.

Molecule `CC(=O)c1c(N[C@@H](CC(C)C)C(=O)O)c2ccc(N(C)C)cc2oc1=O` registered an emission maximum (in ClCCl) of 446 nm.

As to `COc1ccc2cc(C3=[N+]4C(=Nc5c(-c6ccccc6)cc(-c6ccc7cc(OC)ccc7c6)n5[B-]4(F)F)C(c4ccccc4)=C3Br)ccc2c1`, the emission maximum runs as follows: (in ClC(Cl)Cl) 728 nm; (in ClCCl) 728 nm.

Turning to `COC1=[N+]2C(=C(c3ccccc3)c3cc(SC#N)c(OC)n3[B-]2(F)F)C=C1SC#N`, the emission maximum (in CC#N) is reported as 553 nm; the emission maximum (in CCCCCC) was determined as 560 nm; the emission maximum (in CCOC(C)=O) stood at 556 nm; the emission maximum (in CO) was found to be 550 nm; the emission maximum (in ClCCl) turned out to be 555 nm.

In turn, `COc1ccc(O[B-]2(Oc3ccc(OC)cc3)n3c(C)cc(C)c3C(c3ccc(I)cc3)=C3C(C)=CC(C)=[N+]32)cc1` came in with an emission maximum (in ClC(Cl)Cl) of 518.49 nm.

With `CCCCOc1ccc2cc(-c3ccc(C)cc3)c(=O)oc2c1`, the emission maximum (in C1CCOC1) is listed as 423 nm, the emission maximum (in CCCCCC) came to 416 nm, the emission maximum (in CCO) stood at 429 nm and the emission maximum (in CS(C)=O) is 431 nm.

Take `C#CCOc1ccc(C2=[N+]3C(=Nc4c(-c5ccccc5)cc(-c5ccc(O)cc5)n4[B-]3(F)F)C(c3ccccc3)=C2)cc1`: the emission maximum reads like this: (in CO) 716 nm; (in Cc1ccccc1) 711 nm; (in ClC(Cl)Cl) 708 nm.

On to `Cc1ccc(C2=C3C=C(I)C=[N+]3[B-](F)(F)n3c2cc(I)c3I)cc1`, for which the emission maximum (in C1CCCCC1) worked out at 577.5 nm; the emission maximum (in CC#N) is reported as 578 nm; the emission maximum (in CCO) worked out at 582 nm; the emission maximum (in CCOC(C)=O) stood at 578.5 nm; the emission maximum (in CO) came to 580 nm; the emission maximum (in OCC(F)(F)F) came out at 576 nm.

`O=c1c2ccc(N3CCCCC3)cc2oc2cc(N3CCCCC3)ccc12` gave an emission maximum (in CO) of 448.15 nm and an emission maximum (in ClCCl) of 407.47 nm.

As to `COC(=O)/C=C/C1=CC2=C(c3c(C)cc(C)cc3C)c3cccn3[B-](F)(F)[N+]2=C1`, the emission maximum (in ClCCl) stood at 570 nm.
